Results: US20070231202A1 (priority 2006, published 2007)

What was measured:
prions = conditions: 59% solution admitted into sterilization chamber under vacuum, vapor at one point excited into plasma
[1] = test system: prions (10% brain homogenates from hamsters with scrapie); format: in vivo, hamster; conditions: hydrogen peroxide vapor of higher concentrations and/or higher plasma density

SMILES: OO [hydrogen peroxide]
- inactivation of prions on the instruments (prions): failed to sufficiently inactivate prions
- inactivating prions, rendering article non-infectious for prion diseases [1]: effective in inactivating prions
